Measurements from US11786537B2 (priority 2022, dated 2023).
Entries after “also recorded” stand apart in the source; their conditions may differ.

Tests used:
VERO-E6 cells = assay: MTT cytotoxicity assay (CC50); format: cell-based; conditions: 24 h, in words
Method: To assess the half maximal cytotoxic concentration (CC50), stock solutions of the test compounds were prepared in 10% DMSO in ddH2O and diluted further to the working solutions with DMEM. The cytotoxic activity of the extracts was tested in VERO-E6 cells by using the 3-(4,5-dimethylthiazol-2-yl)-2,5-diphenyltetrazolium bromide (MTT) method with minor modifications. Briefly, the cells were seeded in 96 well-plates (100 μl/well at a density of 3×10^5 cells/ml) and incubated for 24 h at 37° C. in 5% CO2. After 24 h, cells were treated with various concentrations of the tested compounds in triplicates. 24 h later, the supernatant was discarded, and cell monolayers were washed with sterile 1× phosphate buffer saline (PBS) 3 times and MTT solution (20 μl of 5 mg/ml stock solution) was add to each well and incubated at 37° C. for 4 h followed by medium aspiration. In each well, the formed formazan crystals were dissolved with 200 μl of acidified isopropanol (0.04 M HCl in absolute isopropanol=0.073 ml HCL in 50 ml isopropanol). Absorbance of formazan solutions was measured at λ max 540 nm with 620 nm as a reference wavelength using a multi-well plate reader. […]

[1] = system: SARS-CoV-2 (hCoV-19/Egypt/NRC-03/2020); format: cell-based

Substance	toxicity (VERO-E6 cells)	antiviral activity against SARS-CoV-2 [1]	inhibitory effect / viral inhibition [1]
4,4-bis[(dimethylamino)methoxy]-7,7′-dihexyl-10,10′-dimethyl-3,3′-bis(4-nitrophenyl)-8,8′-dioxo-4,4′-spirobi[5-oxa-2,7-diaza-3-azonia-4λ^6-cuprabicyclo[4.4.0]deca-1(6),2,9-triene]-9,9′-dicarbonitrile [Complex D1]	low toxicity	active antiviral activity; also recorded: significant antiviral activity	somewhat higher inhibitory effect compared to D2; also recorded: acceptable range of viral inhibition
7,7′-dihexyl-10,10′-dimethyl-8,8′-dioxo-3,3′-bis(p-tolyl)-4,4′-spirobi[5-oxa-2,7-diaza-3-azonia-4λ^4-cuprabicyclo[4.4.0]deca-1(6),2,9-triene]-9,9′-dicarbonitrile [Complex D2]	low toxicity	active antiviral activity; also recorded: significant antiviral activity	acceptable range of viral inhibition
